Values after ≈ are worked out from the molar mass of the structure shown.
Assays:
[1] = Drug stability in simulated gastric fluid with pepsin; assay type: in vitro ADME; conditions: 37°C, read-out: t½ (converted)
Experimental: (§1) The HPLC system consisted of a Waters 600 HPLC pump (Waters Corporation, Milford, MA, USA), equipped with a Waters 2996 photodiode array detector. The column was a Kinetex RP-C8 column (3.0 x 150 mm, 5 μm). The mobile phase consisted of 0.1% TFA in acetonitrile/0.1% TFA in 95% H2O and 5% acetonitrile 50:50, under isocratic conditions at a flow rate of 1 mL/min. The UV detector was set at a length of 220 nm.
(§2) To assess enzymatic stability, hydrochloric buffer with pepsin (10 or 40 mg/mL) and phosphate buffer with pancreatin (10 or 40 mg/mL) were used. Buffer solution (250 μL) was preincubated at 37°C and 50 μL of drug stock solution (50 μM in ethanol and FASSIF 1:9) were added and shaken at 37°C and 650 rpm. Samples of 100 μL were withdrawn at various times and 100 µL of ice-cold acetonitrile containing 0.5 v/v% formic acid were added to stop enzymatic activity. Samples were vortexed and centrifuged at 2°C and 10000 rpm for 10 min. The drug content in the supernatant was analyzed by HPLC.

pepsin = experiment: as above; assay type: in vitro ADME; conditions: for kobs: 37°C
Experimental: as §1, §2

S. aureus ATCC 29213 [2] = experiment: Broth microdilution MIC/MBC on planktonic cells; assay type: cell-based; conditions: Staphylococcus aureus, ATCC29213
Experimental: (§3) Two Gram-positive (S. aureus ATCC 29213 and S. epidermidis ATCC 35984) and two Gram-negative (E. coli ATCC 8739 and P. aeruginosa ATCC 9027) strains, and one fungal strain (C. albicans ATCC 10231) were used for the detection of antibacterial activity of carvacrol, NAC, Ac-Cys(Allyl)-OH, and carvacrol codrugs 1–10. All tested compounds were dissolved in 20% DMSO to prepare the stock solution (100 mg/mL). The final concentration of DMSO in each well appeared to be not toxic for all studied microorganisms, as confirmed by the solvent control test included in the study.
(§4) The effects of carvacrol codrugs 1–10 and reference compounds on planktonic cells were evaluated by Minimum Inhibitory Concentration (MIC) and Minimum Bactericidal Concentration (MBC) determination using the broth microdilution method according to EUCAST guidelines. Bacterial suspensions, grown in Mueller–Hinton Broth (MHB) at logarithmic phase, were incubated on microtiter plates at a concentration of 5 x 10^5 CFU/mL, with several dilutions (0.07–40 mg/mL) for 24 h at 37°C. The MIC was defined as the lowest concentration of substances giving a complete inhibition of visible growth in comparison with a control well, and the MBC was determined as the lowest concentration at which no bacterial growth occurred on Mueller–Hinton Agar plates.
(§5) Data were obtained from at least three independent experiments performed in duplicate. The susceptibility of the bacterial strains against ciprofloxacin was used as an internal standard during MIC determinations.

P. aeruginosa ATCC 9027 [3] = experiment: Broth microdilution MIC/MBC on planktonic cells; assay type: cell-based; conditions: Pseudomonas aeruginosa, ATCC9027
Experimental: as §3, §4, §5

E. coli ATCC 8739 [4] = experiment: Broth microdilution MIC/MBC on planktonic cells; assay type: cell-based; conditions: Escherichia coli, ATCC8739
Experimental: as §3, §4, §5

[5] = tested on: S. epidermidis ATCC 35984; experiment: Broth microdilution MIC/MBC on planktonic cells; assay type: cell-based; conditions: Staphylococcus epidermidis, ATCC35984
Experimental: as §3, §4, §5

[6] = Drug stability in simulated intestinal fluid with pancreatin; assay type: in vitro ADME; conditions: 37°C, read-out: t½ (converted)
Experimental: as §1, §2

pancreatin = experiment: as above; assay type: in vitro ADME; conditions: 37°C
Experimental: as §1, §2

S. aureus ATCC 29213 [7] = experiment: Antibiofilm assay on established biofilm (BIC/BEC); assay type: cell-based; conditions: S. aureus ATCC 29213 established biofilm
Experimental: (§6) The efficacy on established biofilm was evaluated by determining Biofilm Inhibitory Concentration (BIC) and Biofilm Eradication Concentration (BEC) according to the method described by Johnson et al. with some modifications. Bacterial suspensions, grown in Tryptic soy broth supplemented with 0.5% (v/v) glucose at logarithmic phase, as well as C. albicans grown in RPMI 1640 plus 2% glucose, were incubated on flat-bottomed microtiter plates at a concentration of 5 x 10^5 CFU/mL. After 24 h of incubation at 37°C, the planktonic cells were gently removed and wells were washed with sterile phosphate-buffered saline solution (PBS) pH 7.3 and filled with carvacrol, carvacrol codrug 4, Ac-Cys(Allyl)-OH with dilutions ranging from the MIC values to a maximum concentration of 50 mg/mL. The OD600 was measured at time 0 and after incubation for 24 h at 37°C. The BIC values were determined as the lowest concentrations where no growth occurred in the supernatant fluid, confirmed by no increase in optical density compared with the initial reading. The BEC values were determined as the lowest concentrations at which no bacterial growth occurred on Tryptic soy agar for bacteria and on Sabouraud agar for C. albicans. Data were obtained from at least three independent experiments performed in duplicate.

P. aeruginosa ATCC 9027 [8] = experiment: Antibiofilm assay on established biofilm (BIC/BEC); assay type: cell-based
Experimental: as §6

E. coli ATCC 8739 [9] = experiment: Antibiofilm assay on established biofilm (BIC/BEC); assay type: cell-based
Experimental: as §6

C. albicans ATCC 10231 = experiment: Antibiofilm assay on established biofilm (BIC/BEC); assay type: cell-based
Experimental: as §6

[10] = tested on: S. epidermidis ATCC 35984; experiment: Antibiofilm assay on established biofilm (BIC/BEC); assay type: cell-based
Experimental: as §6

[11] = SIF pH 7.4, pancreatin 10 mg/mL

half-life at 8.3 µM ([1]; simulated gastric fluid with pepsin 10 mg/mL, pH 1.3, SGF pH 1.3, pepsin 10 mg/mL): > 4440 min
half-life at 8.3 µM ([1]; simulated gastric fluid with pepsin 40 mg/mL, pH 1.3, SGF pH 1.3, pepsin 40 mg/mL): 347 min
kobs (pepsin; SGF pH 1.3, pepsin 10 mg/mL): 0.009 (± 0.001) h^-1
kobs (pepsin; SGF pH 1.3, pepsin 40 mg/mL): 0.119 (± 0.003) h^-1
stability at pH 1.3 respect to pH 7.4 (pepsin; in the presence of pepsin and pancreatin (10 mg/mL)): 13 fold
MIC (S. aureus ATCC 29213 [2]; S. aureus ATCC 29213, 24 h at 37°C, read-out: MIC): 2500 µg/mL (≈ 7.45 mM)
MIC (P. aeruginosa ATCC 9027 [3]; P. aeruginosa ATCC 9027, 24 h at 37°C, read-out: MIC): 5000 µg/mL (≈ 14.9 mM)
MIC (E. coli ATCC 8739 [4]; E. coli ATCC 8739, 24 h at 37°C, read-out: MIC): 2500 µg/mL (≈ 7.45 mM)
MIC ([5]; S. epidermidis ATCC 35984, 24 h at 37°C, read-out: MIC): 2500 µg/mL (≈ 7.45 mM)
half-life at 8.3 µM ([6]; simulated intestinal fluid with pancreatin 10 mg/mL, pH 7.4, SIF pH 7.4, pancreatin 10 mg/mL): 330 min
half-life at 8.3 µM ([6]; simulated intestinal fluid with pancreatin 40 mg/mL, pH 7.4, SIF pH 7.4, pancreatin 40 mg/mL): ~60 min
kobs (pancreatin; [11]): 0.126 (± 0.003) h^-1
t½ (pancreatin; [11]): 5.51 (± 0.13) h
kobs (pancreatin; SIF pH 7.4, pancreatin 40 mg/mL): 0.83 (± 0.02) h^-1
BEC as multiple of MIC (P. aeruginosa ATCC 9027 [8]; P. aeruginosa ATCC 9027): 2MIC
BEC as multiple of MIC (E. coli ATCC 8739 [9]; E. coli ATCC 8739): 16MIC
BIC as multiple of MIC (E. coli ATCC 8739 [9]; E. coli ATCC 8739): 8MIC
BEC as multiple of MIC (C. albicans ATCC 10231; C. albicans ATCC 10231): 8MIC
BIC as multiple of MIC (C. albicans ATCC 10231; C. albicans ATCC 10231): 8MIC
BEC as multiple of MIC ([10]; S. epidermidis ATCC 35984): 8MIC
BIC as multiple of MIC ([10]; S. epidermidis ATCC 35984): 2MIC
SMILES: C=CCSC[C@H](NC(C)=O)C(=O)Oc1cc(C(C)C)ccc1C [codrug 4, N-Ac-Cys(Allyl)-CAR]
MBC (S. aureus ATCC 29213 [2]; S. aureus ATCC 29213, read-out: MBC): 2500 µg/mL (≈ 7.45 mM)
MBC (P. aeruginosa ATCC 9027 [3]; P. aeruginosa ATCC 9027, read-out: MBC): 10000 µg/mL (≈ 29.8 mM)
MBC (E. coli ATCC 8739 [4]; E. coli ATCC 8739, read-out: MBC): 2500 µg/mL (≈ 7.45 mM)
MBC ([5]; S. epidermidis ATCC 35984, read-out: MBC): 2500 µg/mL (≈ 7.45 mM)
BEC (S. aureus ATCC 29213 [7]): 10 mg/mL
BIC (S. aureus ATCC 29213 [7]; 24 h): 5 mg/mL
BEC (P. aeruginosa ATCC 9027 [8]; P. aeruginosa ATCC 9027 established biofilm): 10 mg/mL
BIC (P. aeruginosa ATCC 9027 [8]; P. aeruginosa ATCC 9027 established biofilm, 24 h): 5 mg/mL
BEC (E. coli ATCC 8739 [9]; E. coli ATCC 8739 established biofilm): 40 mg/mL
BIC (E. coli ATCC 8739 [9]; E. coli ATCC 8739 established biofilm, 24 h): 20 mg/mL
BEC (C. albicans ATCC 10231; C. albicans ATCC 10231 established biofilm): 10 mg/mL
BIC (C. albicans ATCC 10231; C. albicans ATCC 10231 established biofilm, 24 h): 10 mg/mL
BEC ([10]; S. epidermidis ATCC 35984 established biofilm): 20 mg/mL
BIC ([10]; S. epidermidis ATCC 35984 established biofilm, 24 h): 5 mg/mL
